The results in this text go back to patent publication US20240358015A1, “HERBICIDAL COMPOSITIONS” (Agrematch Ltd., priority 2021, published 2024).

Structures are written as SMILES.

Assay [1] relates to X. strumarium. The experiment in a line: Growth-chamber post-emergence assay on various weed species (Example 7). It is filed as in vivo, Xanthium strumarium. As to conditions: 1500 g/ha; 0.8% MIPA, 0.25% Genapol, 2% HASTEN, 0.05% Break-Thru. The method, then:
(§1) Herbicidal activity of Compound 1 was determined by post-emergence application on various weed species. 8-14 day old plants (weeds) were grown at 16 hours/8 hours day/night cycles at 30° C./25° C., respectively. Leaf stage was typically 2-6.
(§2) In each treatment, 3 pots (either 7×7 or 8×12 cm), containing about 3-6 plants each, were sprayed using a VL-SET Paasche Airbrush with a 1-1.5 ml-solution containing 0.5-1.5 mg/ml of the tested compound, which is equivalent to about 500-1500 g/ha.
(§3) Damage assessment: Herbicidal activity was assessed and scored 3-4 days after application by visual inspection of the plants in comparison to plants treated with the formulation alone (with no active ingredient) as control. Activity score is in the range of 0 to 100, where 0 represents no herbicidal activity like control plants and 100 represents the maximal herbicidal activity (i.e., total death of the plant).

Assay [2] has as its system A. theophrasti. The description is as above. In kind it is in vivo, Abutilon theophrasti. As to conditions: 1500 g/ha; 0.8% MIPA, 0.25% Genapol, 2% HASTEN, 0.05% Break-Thru. Here is the method:
as §1, §2, §3

For assay [3], the system named is Z. mays. The experiment in a line: Greenhouse post-emergence assay (Example 3). In kind it is in vivo, Zea mays. The conditions noted are these: 4% TWEEN 20, 0.05 M Tris buffer pH 8, 0.05% Break-Thru. Here is the method:
Plant seeds were sowed in 9 cm×9 cm×10 cm flowerpots. Timing of sowing (days before treatment application) for each plant is detailed in Table 7 below. 5 flowerpots of each species were used for each treatment. Seeds were sowed in wet clay soil and then covered with about 1 cm layer of dry clay soil.
Irrigation: Irrigation was carried out using VIBRONET-UD (NETAFIM) sprinklers hanging upside down one meter above the flowerpots. Water flow capacity-50 liters per hour. Irrigation was carried out three times a day for 10 minutes.
Treatments: Table 8 presents generally the protocols of the various treatments used in these assays.
57.6 ml of 0.05 M Tris buffer pH=8 were added to 150 mg of Compound 1 and the mixture was stirred using a magnetic stirrer. 2.4 ml of TWEEN®20 were added and the mixture was stirred using a magnetic stirrer to obtain a 4% TWEEN®20-containing solution. 30 μl of Break-Thru were added to obtain a 0.05% Break-Thru-containing solution.
57.6 ml of 0.05 M Tris buffer pH=8 were added to 225 mg of Compound 1 and the mixture was stirred using a magnetic stirrer. 2.4 ml of TWEEN®20 were added and the mixture was stirred using a magnetic stirrer to obtain a 4% TWEEN®20-containing solution. 30 μl of Break-Thru were added to obtain a 0.05% Break-Thru-containing solution.
Plants were sprayed using a DeVreis Generation 4 Research Track Sprayer with a TEE JET nozzle 80015EVS. Spraying volume was 200 L/ha using the following sprayer parameters: • Spray speed-2 KMH • Spray length-1.50 m • Spray pressure-42 PSI
Each plant was sprayed twice, yielding a total spraying volume of 400 L/ha. Nozzle was located 55 cm above pots ground level.
A. palmeri, S. viridis and S. nigrum plants were elevated with 8 cm tray, Z. mays plants were elevated with 3 cm tray in order to achieve a similar spraying height for all plant's foliage.
Plants were scored by visual inspection of symptoms, on a scale of 0-100, where 0 represents no herbicidal activity like control plants and 100 represents the maximal herbicidal activity (i.e., total death of the plant). Each pot was scored separately. DAT=days after treatment

The test system of assay [4] is A. palmeri. The experiment in a line: Growth-chamber post-emergence assay on various weed species (Example 7). In kind it is in vivo, Amaranthus palmeri. As to conditions: 0.05% Break-Thru, 3-4 days after application. The method, then: as §1, §2, §3
Assay [5] has as its system Solanum nigrum. The experiment in a line: Growth-chamber post-emergence assay on additional weeds (Example 2). In kind it is in vivo. As to conditions: 1000 g/ha; 13-day old plants; 3 days after application; scale 0-100. Here is the method: (§4) Herbicidal activity of Compound 1 was determined by post-emergence application on 13-day old Echinochloa colonum, Lolium multiflorum and Solanum nigrum.
(§5) In each treatment, 3 pots, each containing about 5 plants, were sprayed using the same conditions as described above which are equivalent to 1000 g/ha. Herbicidal activity was assessed and scored 3 days after application by visual inspection of the weeds. Activity score is in the range of 0 to 100, where 0 represents no herbicidal activity like control plants and 100 represents the maximal herbicidal activity (i.e., total death of the plant). The obtained data is presented in Table 6 below per the activity score as described herein.

Assay [6] has as its system Lolium multiflorum. The assay is described as above. In kind it is in vivo. The conditions noted are these: 1000 g/ha; 13-day old plants; 3 days after application; scale 0-100. The method, then: as §4, §5
In assay [7] the test system is Echinochloa colonum. Described as above. It is filed as in vivo. The conditions noted are these: 1000 g/ha; 13-day old plants; 3 days after application; scale 0-100. Here is the method:
as §4, §5

The test system of assay [8] is L. multiflorum. Kind of assay: Growth-chamber post-emergence assay on various weed species (Example 7). It is filed as in vivo, Lolium multiflorum. The conditions noted are these: 1500 g/ha; 0.8% MIPA, 0.25% Genapol, 2% HASTEN, 0.05% Break-Thru. Here is the method: as §1, §2, §3
The subject of assay [9] is Sensitive A. rudis. The experiment in a line: Growth-chamber assay with resistant weeds (Example 9). In kind it is in vivo, Amaranthus rudis. As to conditions: 2,000 g/ha, 4-5 days after application, scale 0-100. Here is the method: (§6) Herbicidal activity of Compound 1 was determined by post-emergence application in both Growth-chamber and Net-house conditions. Growing conditions were as described in Examples 6 and 8 above.
(§7) The assay was performed on 9-11 day old plants (weeds) of Amaranthus rudis that were either target-site resistant or sensitive to HRAC class 5. In each treatment, between 1 to 3 pots (8×12 cm), containing about 6 Amaranthus Rudis plants, were sprayed using a VL-SET Paasche Airbrush with a 1 ml-solution.
(§8) Damage assessment: Herbicidal activity was assessed and scored 4-5 days after application by visual inspection of the plants in comparison to plants treated with the formulation alone (with no active ingredient) as control. Activity score is in the range of 0 to 100, where 0 represents no herbicidal activity like control plants and 100 represents the maximal herbicidal activity (i.e., total death of the plant).

The subject of assay [10] is Resistant A. rudis (target-site resistant to HRAC class 5). The description is as above. It is filed as in vivo, Amaranthus rudis. The conditions noted are these: 2,000 g/ha, 4-5 days after application, scale 0-100. Here is the method:
as §6, §7, §8

Assay [11] has as its system E. colonum. Kind of assay: Growth-chamber post-emergence assay on various weed species (Example 7). The conditions noted are these: 1500 g/ha; 0.8% MIPA, 0.25% Genapol, 2% HASTEN, 0.05% Break-Thru. It is filed as in vivo, Echinochloa colonum. Here is the method:
as §1, §2, §3

In the case of `O=C(O)c1cc(O)c2c(c1)C(=O)c1cccc(O)c1C2=O` [Compound 1, Rhein], the Herbicidal activity score worked out at 90 in assay [1]; 40 in assay [2]; 100 in [4] (500 g/ha, 0.8% MIPA, 0.25% Genapol, 1% AGNIQUE, 0.05% Ca-LAS, 0.02% BSU, scale 0-100); 100 in assay [4] (750 g/ha, 0.2% MIPA, 2% TWEEN20, 1% AGNIQUE, 0.05% Ca-LAS, 0.02% BSU); 100 in [4] (1500 g/ha, 0.8% MIPA, 0.25% Genapol, 2% HASTEN); 50 in assay [8]. Moreover, the Herbicidal activity score in assay [9] amounted to 100; in assay [10], 100; in assay [11], 90. For the same molecule, the “Score by visual inspection of symptoms (average ± standard deviation, 5 pots)” value in assay [3] (1000 g/ha (2.5 mg/ml, 400 L/ha), 1 DAT, scale 0-100) is on record as 0 ± 0; in assay [3] (1000 g/ha (2.5 mg/ml, 400 L/ha), 3 DAT) it was 30 ± 0; in [3] (1000 g/ha (2.5 mg/ml, 400 L/ha), 6 DAT) it was 20 ± 0; in assay [3] (1000 g/ha (2.5 mg/ml, 400 L/ha), 8 DAT), 22 ± 4.5; in [3] (1000 g/ha (2.5 mg/ml, 400 L/ha), 15 DAT), 10 ± 0; in [3] (1500 g/ha (3.75 mg/ml, 400 L/ha), 1 DAT), 0 ± 0. Further, the “Score by visual inspection of symptoms (average ± standard deviation, 5 pots)” value came out at 30 ± 0 in assay [3] (1500 g/ha (3.75 mg/ml, 400 L/ha), 3 DAT); 30 ± 0 in [3] (1500 g/ha (3.75 mg/ml, 400 L/ha), 6 DAT); 28 ± 4.5 in assay [3] (1500 g/ha (3.75 mg/ml, 400 L/ha), 8 DAT); 20 ± 0 in assay [3] (1500 g/ha (3.75 mg/ml, 400 L/ha), 15 DAT). Also, the Activity Score in assay [5] stood at 60; in [6], 50; in [7], 70.
